Test results reported in patent US20070218460A1, “Method of Estimating Toxicity of Drug” (TAKEDA PHARMACEUTICAL COMPANY LIMITED, priority 2003, published 2007).

Key:
flj22362 = assay: Real-time quantitative PCR of PLsis marker gene expression; format: cell-based, human; conditions: HepG2 cells, 24 hr exposure, relative value, control group = 1.0, GAPDH internal standard, n=3
Method: (§1) Using RNeasy Mini Kit (QIAGEN), total RNA was purified from the cells, and cDNA was synthesized in a 100 μL system using TaqMan Reverse Transcription Reagents (PE Applied Biosystems).
(§2) As the primer for glyceraldehyde-3-phosphoric acid dehydrogenase (GAPDH) and VIC labeled probe, those attached to TaqMan GAPDH Control Reagents (PE Applied Biosystems) were used.
(§3) Using 100 μL of the reaction mixture containing 5 μL of cDNA (1×TaqMan Universal PCR Master Mix (PE Applied Biosystems), 200 nM forward primer, 200 nM reverse primer and 200 nM TaqMan probe), 40 cycles of (1 cycle=95° C., 15 sec; 60° C., 1 min) PCR were performed. PCR and fluorescence detection were performed using ABI PRISM Sequence Detector 7000 (PE Applied Biosystems). As the internal standard, GAPDH was used to amend the measurement values. For the determination of significant difference, t-test was used (n=3).
(§4) For each test compound, the expression variation rate of 12 genes each relative to the control group was determined.

depp = assay: as above; format: cell-based, human; conditions: HepG2 cells, 24 hr exposure, relative value, control group = 1.0, GAPDH internal standard, n=3
Method: as §1, §2, §3, §4

tagln = assay: as above; format: cell-based, human; conditions: HepG2 cells, 24 hr exposure, relative value, control group = 1.0, GAPDH internal standard, n=3
Method: as §1, §2, §3, §4

hpn = assay: as above; format: cell-based, human; conditions: HepG2 cells, 24 hr exposure, relative value, control group = 1.0, GAPDH internal standard, n=3
Method: as §1, §2, §3, §4

slc2a3 = assay: as above; format: cell-based, human; conditions: HepG2 cells, 24 hr exposure, relative value, control group = 1.0, GAPDH internal standard, n=3
Method: as §1, §2, §3, §4

fabp1 = assay: as above; format: cell-based, human; conditions: HepG2 cells, 24 hr exposure, relative value, control group = 1.0, GAPDH internal standard, n=3
Method: as §1, §2, §3, §4

kiaa1001 = assay: as above; format: cell-based, human; conditions: HepG2 cells, 24 hr exposure, relative value, control group = 1.0, GAPDH internal standard, n=3
Method: as §1, §2, §3, §4

serpina3 = assay: as above; format: cell-based, human; conditions: HepG2 cells, 24 hr exposure, relative value, control group = 1.0, GAPDH internal standard, n=3
Method: as §1, §2, §3, §4

lss = assay: as above; format: cell-based, human; conditions: HepG2 cells, 24 hr exposure, relative value, control group = 1.0, GAPDH internal standard, n=3
Method: as §1, §2, §3, §4

asah1 = assay: as above; format: cell-based, human; conditions: HepG2 cells, 24 hr exposure, relative value, control group = 1.0, GAPDH internal standard, n=3
Method: as §1, §2, §3, §4

mgc4171 = assay: as above; format: cell-based, human; conditions: HepG2 cells, 24 hr exposure, relative value, control group = 1.0, GAPDH internal standard, n=3
Method: as §1, §2, §3, §4

nr0b2 = assay: as above; format: cell-based, human; conditions: HepG2 cells, 24 hr exposure, relative value, control group = 1.0, GAPDH internal standard, n=3
Method: as §1, §2, §3, §4

HepG2 cells [1] = assay: Electron-microscopic examination of PLsis induction potential (myelin-like structure)
Text: Using 30 kinds of the following commercially available drugs as test compounds, the level of PLsis induction potential was examined with the emergence of an intracellular myelin-like structure or a structure having a high electron density, which is an early image thereof, as an index by electronmicroscopic observation.
HepG2 cells (purchased from ATCC) were exposed to the test compound by a conventional method. HepG2 cells used were of the cell growth phase. The attached HepG2 cells were washed twice with. Dulbecco's phosphate buffered saline (calcium and magnesium salt free; PBS(−))(Dainippon Pharmaceutical Co., Ltd.) containing 0.05 w/v % EDTA, detached with a cell dissociation solution of 0.25 vol % trypsin-1 mmol/L EDTA (Gibco BRL) diluted 2-fold with PBS(−), centrifuged to remove the supernatant, and adjusted to a concentration of 2×10^5 cells/250 μL with a culture medium [Dulbecco's modified Eagle medium (DMEM)(Gibco BRL) supplemented with 50 U/mL penicillin (Gibco BRL)-[…] streptomycin (Gibco BRL) and 5 vol % FBS (Bio whittaker)]. DMSO alone or a culture medium containing the above-mentioned test compound in DMSO solution was dispensed to a well by 250 μL, the above-mentioned cell suspension (250 μL) was added, and cultured in a CO2 incubator (7100; Napco) under an atmosphere of 5% CO2—95% air at 37° C.
After culture for 72 hr, the culture medium was removed, and the cells were fixed with 1 w/v % glutaraldehyde solution. After fixing with 2 w/v % osmic acid for 2 hr by a conventional method and dehydrating with an alcohol series, the cells were embedded in a resin (Quetol 812). Ultrathin slices were prepared and, after electron staining, observed with an electron microscope (H-300; Hitachi) and photographed in 3 or more pictures per each sample (magnification ×5000). The processing after post-fixation was performed by Applied Medical Research.

HepG2 cells [2] = assay: Highest concentration at which cells were viable after 72 hr exposure; format: cell-based, human

SMILES | expression variation rate flj22362 (flj22362) | expression variation rate depp (depp) | expression variation rate tagln (tagln) | expression variation rate hpn (hpn) | expression variation rate slc2a3 (slc2a3) | expression variation rate fabp1 (fabp1) | expression variation rate kiaa1001 (kiaa1001) | expression variation rate serpina3 (serpina3) | expression variation rate lss (lss) | expression variation rate asah1 (asah1) | expression variation rate mgc4171 (mgc4171) | expression variation rate nr0b2 (nr0b2) | frequency of appearance of myelin-like structure (HepG2 cells [1]) | addition concentration (highest concentration at which cells survived after 72 hr of culture) (HepG2 cells [2]) [µmol/L]
CN(C)CCCN1c2ccccc2CCc2ccc(Cl)cc21 [clomipramine] | 1.46 | 2.08 | 0.78 | 2.39 | 0.63 | 2.36 | 3.83 | 2.03 | 1.52 | 0.82 | 1.41 | 0.98 | + | 8.3
CC(C)N(CCC(C(N)=O)(c1ccccc1)c1ccccn1)C(C)C (centres unmarked) [disopyramide] | 0.98 | 0.90 | 0.99 | 1.12 | 1.03 | 1.02 | 0.94 | 0.99 | 1.14 | 1.85 | 1.21 | 0.63 | − | 25
CC[C@H]1OC(=O)[C@H](C)[C@@H](O[C@H]2C[C@@](C)(OC)[C@@H](O)[C@H](C)O2)[C@H](C)[C@@H](O[C@@H]2O[C@H](C)C[C@H](N(C)C)[C@H]2O)[C@](C)(O)C[C@@H](C)C(=O)[C@H](C)[C@@H](O)[C@]1(C)O [erythromycin] | 0.92 | 0.71 | 0.85 | 0.87 | 0.73 | 0.73 | 0.78 | 0.85 | 0.87 | 0.90 | 0.86 | 0.90 | − | 25
O=C(NCC1CCCCN1)c1cc(OCC(F)(F)F)ccc1OCC(F)(F)F (centres unmarked) [flecainide] | 1.65 | 1.73 | 0.86 | 1.26 | 0.46 | 1.50 | 2.10 | 1.60 | 1.22 | 2.42 | 1.57 | 1.02 | − | 25
CNCCC(Oc1ccc(C(F)(F)F)cc1)c1ccccc1 (centres unmarked) [fluoxetine] | 2.15 | 3.08 | 0.20 | 2.39 | 0.09 | 2.80 | 1.93 | 1.73 | 3.51 | 6.55 | 1.34 | 2.70 | +++ | 8.3

More lines, main results first:

expression variation rate flj22362 (flj22362) | expression variation rate depp (depp) | expression variation rate tagln (tagln) | expression variation rate hpn (hpn) | expression variation rate slc2a3 (slc2a3) | expression variation rate fabp1 (fabp1) | expression variation rate kiaa1001 (kiaa1001) | expression variation rate serpina3 (serpina3) | expression variation rate lss (lss) | expression variation rate asah1 (asah1) | expression variation rate mgc4171 (mgc4171) | expression variation rate nr0b2 (nr0b2) | frequency of appearance of myelin-like structure (HepG2 cells [1]) | SMILES | addition concentration (highest concentration at which cells survived after 72 hr of culture) (HepG2 cells [2]) [µmol/L]
0.93 | 1.38 | 0.52 | 1.43 | 0.44 | 1.50 | 1.32 | 1.31 | 1.52 | 0.77 | 1.24 | 1.49 | − | O=C(CCCN1CCC(O)(c2ccc(Cl)cc2)CC1)c1ccc(F)cc1 [haloperidol] | 8.3
1.95 | 2.29 | 0.71 | 2.71 | 0.48 | 5.30 | 2.24 | 2.37 | 4.33 | 1.47 | 1.53 | 2.36 | + | CC(=O)N1CCN(c2ccc(OCC3COC(Cn4ccnc4)(c4ccc(Cl)cc4Cl)O3)cc2)CC1 (centres unmarked) [ketoconazole] | 8.3
0.83 | 0.83 | 0.90 | 0.83 | 1.07 | 0.88 | 0.70 | 0.92 | 0.75 | 1.10 | 0.79 | 0.79 | − | C[C@H]1COc2c(N3CCN(C)CC3)c(F)cc3c(=O)c(C(=O)O)cn1c23 [levofloxacin] | 25
0.68 | 0.79 | 0.74 | 0.72 | 0.94 | 0.75 | 0.86 | 0.82 | 0.78 | 1.17 | 0.77 | 0.81 | − | CC1COc2c(N3CCN(C)CC3)c(F)cc3c(=O)c(C(=O)O)cn1c23 (centres unmarked) [ofloxacin] | 25
3.42 | 2.55 | 0.26 | 2.22 | 0.22 | 2.49 | 1.98 | 2.50 | 3.10 | 3.12 | 1.93 | 2.09 | ++ | C1CCC(C(CC2CCCCN2)C2CCCCC2)CC1 (centres unmarked) [perhexiline] | 8.3
